Results: the supplement of paper PMC11061612

Assays:
Palbociclib = compound: CC(=O)c1c(C)c2cnc(Nc3ccc(N4CCNCC4)cn3)nc2n(C2CCCC2)c1=O [Palbociclib]; details: max 10 µM
Procedure, shortened: (§1)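 Cancer cell lines were dosed for 72 hours (final DMSO typically 0.2%) after 24 hours at 37°C and 5% CO2 in 1536-well plates containing 7.5 μl DMEM/F12 or RPMI with 10% FBS. Viability came from CellTiter-Glo 2.0 luminescence, scaled between blank-well and DMSO-well means, and dose responses were fitted to a two-parameter logistic curve with a non-linear mixed effects model. The single-agent IC50 was obtained from this fit.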

Taselisib = compound: Cc1nc(-c2cn3c(n2)-c2ccc(-c4cnn(C(C)(C)C(N)=O)c4)cc2OCC3)n(C(C)C)n1 [Taselisib]; details: max 10 µM
Procedure, shortened: as §1

Prexasertib = compound: COc1cccc(OCCCN)c1-c1cc(Nc2cnc(C#N)cn2)n[nH]1 [Prexasertib]; details: max 1 µM
Procedure, shortened: as §1

AZD1390 = compound: CC(C)n1c(=O)n(C)c2cnc3cc(F)c(-c4ccc(OCCCN5CCCCC5)nc4)cc3c21 [AZD1390]; details: max 0.3 µM
Procedure, shortened: as §1

Crizotinib = compound: C[C@@H](Oc1cc(-c2cnn(C3CCNCC3)c2)cnc1N)c1c(Cl)ccc(F)c1Cl [Crizotinib]; details: max 10 µM
Procedure, shortened: as §1

Paclitaxel = compound: CC(=O)O[C@H]1C(=O)[C@@]2(C)[C@H]([C@H](OC(=O)c3ccccc3)[C@]3(O)C[C@H](OC(=O)[C@H](O)[C@@H](NC(=O)c4ccccc4)c4ccccc4)C(C)=C1C3(C)C)[C@]1(OC(C)=O)CO[C@@H]1C[C@@H]2O [Paclitaxel]; details: max 3 µM
Procedure, shortened: as §1

Alisertib = compound: COc1cc(Nc2ncc3c(n2)-c2ccc(Cl)cc2C(c2c(F)cccc2OC)=NC3)ccc1C(=O)O [Alisertib]; details: max 10 µM
Procedure, shortened: as §1

Doxorubicin = compound: COc1cccc2c1C(=O)c1c(O)c3c(c(O)c1C2=O)C[C@@](O)(C(=O)CO)C[C@@H]3O[C@H]1C[C@H](N)[C@H](O)[C@H](C)O1 [Doxorubicin]; details: max 1 µM
Procedure, shortened: as §1

Carboplatin = compound: C1CC(C1)(C(=O)[O-])C(=O)[O-].N.N.[Pt+2] [Carboplatin]; details: max 10 µM
Procedure, shortened: as §1

Venetoclax = compound: CC1(C)CCC(CN2CCN(c3ccc(C(=O)NS(=O)(=O)c4ccc(NCC5CCOCC5)c([N+](=O)[O-])c4)c(Oc4cnc5[nH]ccc5c4)c3)CC2)=C(c2ccc(Cl)cc2)C1 [Venetoclax]; details: max 1 µM
Procedure, shortened: as §1

Gemcitabine = compound: Nc1ccn([C@@H]2O[C@H](CO)[C@@H](O)C2(F)F)c(=O)n1 [Gemcitabine]; details: max 0.3 µM
Procedure, shortened: as §1

SN-38 = compound: CCc1c2c(nc3ccc(O)cc13)-c1cc3c(c(=O)n1C2)COC(=O)[C@]3(O)CC [SN-38]; details: max 0.3 µM
Procedure, shortened: as §1

SG3199 = compound: CC1=CN2[C@@H](C1)C=NC3=CC(=C(C=C3C2=O)OC)OCCCCCOC4=C(C=C5C(=C4)N=C[C@@H]6CC(=CN6C5=O)C)OC [SG3199]; details: max 0.001 µM
Procedure, shortened: as §1

Gefitinib = compound: COc1cc2ncnc(Nc3ccc(F)c(Cl)c3)c2cc1OCCCN1CCOCC1 [Gefitinib]; details: max 10 µM
Procedure, shortened: as §1

AZD6738 = compound: C[C@@H]1COCCN1C2=NC(=NC(=C2)C3(CC3)[S@](=N)(=O)C)C4=C5C=CNC5=NC=C4 [AZD6738]; details: max 10 µM
Procedure, shortened: as §1

5-Fluorouracil = compound: O=c1[nH]cc(F)c(=O)[nH]1 [5-Fluorouracil]; details: max 20 µM
Procedure, shortened: as §1

AZD5363 = compound: C1CN(CCC1(C(=O)N[C@@H](CCO)C2=CC=C(C=C2)Cl)N)C3=NC=NC4=C3C=CN4 [AZD5363]; details: max 10 µM
Procedure, shortened: as §1

AZD2811 = compound: CCN(CCO)CCCOc1ccc2c(Nc3cc(CC(=O)Nc4cccc(F)c4)[nH]n3)ncnc2c1 [AZD2811]; details: max 1 µM
Procedure, shortened: as §1

AZD1775 = compound: C=CCn1c(=O)c2cnc(Nc3ccc(N4CCN(C)CC4)cc3)nc2n1-c1cccc(C(C)(C)O)n1 [AZD1775]
Procedure, shortened: as §1

[1] = compound: O=C(Nc1ccc2[nH]nc(-c3ccncc3)c2c1)[C@@H]1CCN(CC(=O)N2CCN(c3ccc(-c4ncccn4)cc3)CC2)C1; details: max 5 µM
Procedure, shortened: as §1

AZD4320 = compound: CN(CC[C@H](CSC1=CC=CC=C1)NC2=C(C=C(C=C2)S(=O)(=O)NC(=O)C3=CC=C(C=C3)N4CCC(CC4)[C@H](C5=CC=CC=C5C6=CC=C(C=C6)Cl)O)S(=O)(=O)C(F)(F)F)CCO [AZD4320]; details: max 1 µM
Procedure, shortened: as §1

AZD5991 = compound: Cc1c2c(nn1C)CSCc1cc(n(C)n1)CSc1cc(c3ccccc3c1)OCCCc1c(C(=O)O)n(C)c3c-2c(Cl)ccc13 [AZD5991]; details: max 1 µM
Procedure, shortened: as §1

SRA737 = compound: N#Cc1cnc(Nc2cc(NC[C@H]3CNCCO3)c(C(F)(F)F)cn2)cn1 [SRA737]; details: max 10 µM
Procedure, shortened: as §1

AZD0156 = compound: CN(C)CCCOc1ccc(-c2ccc3ncc4c(c3c2)n(C2CCOCC2)c(=O)n4C)cn1 [AZD0156]
Procedure, shortened: as §1

Lapatinib = compound: CS(=O)(=O)CCNCc1ccc(-c2ccc3ncnc(Nc4ccc(OCc5cccc(F)c5)c(Cl)c4)c3c2)o1 [Lapatinib]; details: max 10 µM
Procedure, shortened: as §1

Etoposide = compound: COc1cc([C@@H]2c3cc4c(cc3[C@@H](O[C@@H]3O[C@@H]5CO[C@@H](C)O[C@H]5[C@H](O)[C@H]3O)[C@H]3COC(=O)[C@H]23)OCO4)cc(OC)c1O [Etoposide]; details: max 10 µM
Procedure, shortened: as §1

Selumetinib = compound: Cn1cnc2c(F)c(Nc3ccc(Br)cc3Cl)c(C(=O)NOCCO)cc21 [Selumetinib]; details: max 10 µM
Procedure, shortened: as §1

Trametinib = compound: CC(=O)Nc1cccc(-n2c(=O)n(C3CC3)c(=O)c3c(Nc4ccc(I)cc4F)n(C)c(=O)c(C)c32)c1 [Trametinib]; details: max 1 µM
Procedure, shortened: as §1

MK-2206 = compound: NC1(c2ccc(-c3nc4ccn5c(=O)[nH]nc5c4cc3-c3ccccc3)cc2)CCC1 [MK-2206]; details: max 10 µM
Procedure, shortened: as §1

AZD8186 = compound: C[C@@H](Nc1cc(F)cc(F)c1)c1cc(C(=O)N(C)C)cc2c(=O)cc(N3CCOCC3)oc12 [AZD8186]; details: max 10 µM
Procedure, shortened: as §1

Savolitinib = compound: C[C@@H](c1ccc2nccn2c1)n1nnc2ncc(-c3cnn(C)c3)nc21 [Savolitinib]; details: max 1 µM
Procedure, shortened: as §1

AZD5153 = compound: COc1nnc2ccc(N3CCC(c4ccc(OCCN5CCN(C)C(=O)[C@H]5C)cc4)CC3)nn12 [AZD5153]; details: max 1 µM
Procedure, shortened: as §1

Olaparib = compound: O=C(c1cc(Cc2n[nH]c(=O)c3ccccc23)ccc1F)N1CCN(C(=O)C2CC2)CC1 [Olaparib]; details: max 10 µM
Procedure, shortened: as §1

Dasatinib = compound: CC1=C(C(=CC=C1)Cl)NC(=O)C2=CN=C(S2)NC3=CC(=NC(=N3)C)N4CCN(CC4)CCO [Dasatinib]; details: max 2 µM
Procedure, shortened: as §1

AZD7648 = compound: Cc1cc2ncnn2cc1Nc1ncc2c(n1)n(C1CCOCC1)c(=O)n2C [AZD7648]; details: max 10 µM
Procedure, shortened: as §1

Cell Line | IC50, cell viability 72 h (Palbociclib) | IC50, cell viability 72 h (Taselisib) | IC50, cell viability 72 h (Prexasertib) | IC50, cell viability 72 h (AZD1390) | IC50, cell viability 72 h (Crizotinib) | IC50, cell viability 72 h (Paclitaxel) | IC50, cell viability 72 h (Alisertib) | IC50, cell viability 72 h (Doxorubicin) | IC50, cell viability 72 h (Carboplatin) | IC50, cell viability 72 h (Venetoclax) | IC50, cell viability 72 h (Gemcitabine) | IC50, cell viability 72 h (SN-38) | IC50, cell viability 72 h (SG3199) | IC50, cell viability 72 h (Gefitinib) | IC50, cell viability 72 h (AZD6738) | IC50, cell viability 72 h (5-Fluorouracil) | IC50, cell viability 72 h (AZD5363) | IC50, cell viability 72 h (AZD2811) | IC50, cell viability 72 h (AZD1775; max 3 µM) | IC50, cell viability 72 h [1] | IC50, cell viability 72 h (AZD4320) | IC50, cell viability 72 h (AZD5991) | IC50, cell viability 72 h (SRA737) | IC50, cell viability 72 h (AZD0156; max 3 µM) | IC50, cell viability 72 h (Lapatinib) | IC50, cell viability 72 h (Etoposide) | IC50, cell viability 72 h (Selumetinib) | IC50, cell viability 72 h (Trametinib) | IC50, cell viability 72 h (MK-2206) | IC50, cell viability 72 h (AZD8186) | IC50, cell viability 72 h (Savolitinib) | IC50, cell viability 72 h (AZD5153) | IC50, cell viability 72 h (Olaparib) | IC50, cell viability 72 h (Dasatinib) | IC50, cell viability 72 h (AZD7648) | IC50, cell viability 72 h (AZD1775; max 1 µM) | IC50, cell viability 72 h (AZD0156; max 1 µM)
MOG-G-UVW (Low Grade Glioma) | > 10000 nM | 3690 nM | 26.5 nM | > 300 nM | 4010 nM | 3 nM | 562 nM | 156 nM | > 10000 nM | > 1000 nM | 27.3 nM | 11.7 nM | > 1 nM | > 10000 nM | 5120 nM | > 20000 nM | > 10000 nM | 344 nM | 582 nM | > 5000 nM | > 1000 nM | > 1000 nM | > 10000 nM | > 3000 nM | > 10000 nM | 1600 nM | > 10000 nM | 148 nM | > 10000 nM | 9250 nM | > 1000 nM | 340 nM | > 10000 nM | > 2000 nM | > 10000 nM | – | –
MOLT-4 (T-Lymphoblastic Leukemia) | 7920 nM | 5930 nM | 13.2 nM | > 300 nM | 2110 nM | 6.6 nM | 37.6 nM | 57 nM | > 10000 nM | > 1000 nM | 58.3 nM | 2.99 nM | > 1 nM | > 10000 nM | 1690 nM | 12800 nM | 4180 nM | 31.1 nM | 428 nM | > 5000 nM | 93.1 nM | > 1000 nM | 2310 nM | > 3000 nM | > 10000 nM | 123 nM | > 10000 nM | > 1000 nM | 6710 nM | > 10000 nM | > 1000 nM | > 1000 nM | > 10000 nM | > 2000 nM | > 10000 nM | – | –
MV-4-11 (Acute Myeloid Leukemia) | 1000 nM | 7860 nM | 17.1 nM | > 300 nM | 1880 nM | 3.97 nM | 35.5 nM | 33.1 nM | > 10000 nM | 7.99 nM | 3.43 nM | 2.99 nM | > 1 nM | 4160 nM | 994 nM | 939 nM | 4430 nM | 20.6 nM | – | 1350 nM | 1.74 nM | 5.9 nM | 1290 nM | – | > 10000 nM | 149 nM | 3350 nM | 70.3 nM | 7870 nM | > 10000 nM | > 1000 nM | 24.2 nM | > 10000 nM | > 2000 nM | > 10000 nM | 503 nM | > 1000 nM
Mo-T (Other Blood Carcinomas) | > 10000 nM | > 10000 nM | > 1000 nM | > 300 nM | > 10000 nM | 106 nM | > 10000 nM | 217 nM | > 10000 nM | > 1000 nM | 52.6 nM | 44 nM | > 1 nM | > 10000 nM | > 10000 nM | > 20000 nM | > 10000 nM | > 1000 nM | 790 nM | > 5000 nM | 671 nM | > 1000 nM | > 10000 nM | > 3000 nM | > 10000 nM | 1090 nM | > 10000 nM | > 1000 nM | > 10000 nM | > 10000 nM | > 1000 nM | 343 nM | > 10000 nM | > 2000 nM | > 10000 nM | – | –
NCI-H522 (Lung Adenocarcinoma) | > 10000 nM | > 10000 nM | > 1000 nM | > 300 nM | > 10000 nM | 59.5 nM | > 10000 nM | > 1000 nM | > 10000 nM | > 1000 nM | > 300 nM | > 300 nM | > 1 nM | > 10000 nM | > 10000 nM | > 20000 nM | > 10000 nM | > 1000 nM | > 3000 nM | > 5000 nM | > 1000 nM | > 1000 nM | > 10000 nM | > 3000 nM | > 10000 nM | > 10000 nM | > 10000 nM | > 1000 nM | > 10000 nM | > 10000 nM | > 1000 nM | > 1000 nM | > 10000 nM | > 2000 nM | > 10000 nM | – | –
